Experimental data published in US20050197350A1, “Novel quinoline, tetrahydroquinazoline, and pyrimidine derivatives and methods of treatment related to the use thereof” (TAISHO PHARMACEUTICAL CO., LTD., priority 2003, published 2005).
Read-outs that look alike come from different tables or passages of the source.

System: MCH receptors
Assay: MCH receptor activity class (method not given)
[1] = class by percent of control at 10^−7 M or IC50
[2] = activity class per percent of control at 10^-7 M or IC50
[3] = class by percent of control at 10^-7 M or IC50
[4] = MCH receptor activity class 1-3 (percent of control at 10^-7 M or IC50)
[5] = MCH receptor, class by percent of control at 10^-7 M or IC50

## Cc1cnc(N[C@H]2CC[C@@H](CNC(=O)c3ccc(C(F)(F)F)cc3)CC2)nc1N(C)C [compound 2698]
[1]
  class: 3 (Class 3 The value of percent of control at 10^−7 M was more than 60% or the value of IC50 was more than 200 nM.)

## CCOc1cccc(C(=O)N[C@H]2CC[C@@H](Nc3ncc(C)c(N(C)C)n3)CC2)c1 [compound 2927, N-(cis-4-{[4-(dimethylamino)-5-methylpyrimidin-2-yl]amino}cyclohexyl)-3-ethoxybenzamide]
[1]
  class: 2 (Class 2: The value of percent of control at 10^−7 M was from 40% to 60% or the value of IC′50 was from 50 nM to 200 nM.)

## COc1ccc(OC)c(CN[C@H]2CC[C@@H](Nc3cc(N(C)C)c4ccccc4n3)CC2)c1 [compound 1088]
[2]
  class: 3 (Class 3 The value of percent of control at 10^−7 M was more than 60% or the value of IC50 was more than 200 nM.)

## CSc1ccc(Cl)c(C(=O)N[C@H]2CC[C@@H](Nc3nccc(N(C)C)n3)CC2)c1 [compound 920]
[3]
  class: 3 (Class 3 The value of percent of control at 10^−7 M was more than 60% or the value of IC50 was more than 200 nM.)

## CN(C)c1ccnc(N[C@H]2CC[C@@H](NC(=O)C3CCCC3)CC2)n1 [compound 343]
[3]
  class: 3 (Class 3 The value of percent of control at 10^−7 M was more than 60% or the value of IC50 was more than 200 nM.)

## Cc1cc(N(C)C)nc(N[C@H]2CC[C@@H](NC(=O)c3cc(Cl)cc(Cl)c3)CC2)n1 [compound 2966, 3,5-dichloro-N-(cis-4-{[4-(dimethylamino)-6-methylpyrimidin-2-yl]amino}cyclohexyl)benzamide]
[1]
  class: 1 (Class 1: The value of percent of control at 10^−7 M was less than 40% or the value of IC50 was less than 50 nM.)

## Cc1ccc(C(=O)CC(C(=O)N[C@H]2CC[C@@H](Nc3cc(N(C)C)c4ccccc4n3)CC2)c2cn(C)c3ccccc23)cc1 (relative stereo) [compound 722]
[3]
  class: 3 (Class 3 The value of percent of control at 10^−7 M was more than 60% or the value of IC50 was more than 200 nM.)

## CN(C)c1cc(N[C@H]2CC[C@@H](CNC(=O)Nc3c(Cl)cccc3C(F)(F)F)CC2)nc2ccccc12 [compound 2373]
[4]
  class: 2 (Class 2: The value of percent of control at 10^−7 M was from 40% to 60% or the value of IC′50 was from 50 nM to 200 nM.)

## CCOc1ccccc1NC(=O)N[C@H]1CC[C@@H](Nc2nccc(N(C)C)n2)CC1 [compound 2232]
[3]
  class: 3 (Class 3 The value of percent of control at 10^−7 M was more than 60% or the value of IC50 was more than 200 nM.)

## CN(C)c1cc(N[C@H]2CC[C@@H](NC(=S)Nc3ccc(Br)cc3C(F)(F)F)CC2)nc2ccccc12 [compound 2285]
[3]
  class: 2 (Class 2: The value of percent of control at 10^−7 M was from 40% to 60% or the value of IC′50 was from 50 nM to 200 nM.)

## CN(C)c1ccnc(N[C@H]2CC[C@@H](NCc3ccc(F)c(Br)c3)CC2)n1 [compound 1225]
[3]
  class: 3 (Class 3 The value of percent of control at 10^−7 M was more than 60% or the value of IC50 was more than 200 nM.)

## Cc1c(C(=O)N[C@H]2CC[C@@H](Nc3nccc(N(C)C)n3)CC2)cc(-c2ccccc2)n1CCSCc1c(F)cccc1Cl [compound 891]
[3]
  class: 1 (Class 1: The value of percent of control at 10^−7 M was less than 40% or the value of IC50 was less than 50 nM.)

## CN(C)c1nc(N[C@H]2CC[C@@H](NC(=S)NCc3ccccc3)CC2)nc2c1CCCC2 [compound 1928]
[5]
  class: 3 (Class 3 The value of percent of control at 10^−7 M was more than 60% or the value of IC50 was more than 200 nM.)

## CCOc1cc(OCC)cc(C(=O)N[C@H]2CC[C@@H](Nc3ncc(C)c(N(C)C)n3)CC2)c1 [compound 2929, N-(cis-4-{[4-(dimethylamino)-5-methylpyrimidin-2-yl]amino}cyclohexyl)-3,5-diethoxybenzamide]
[1]
  class: 1 (Class 1: The value of percent of control at 10^−7 M was less than 40% or the value of IC50 was less than 50 nM.)

## Cc1c(Cl)cccc1NC(=S)N[C@H]1CC[C@@H](Nc2nccc(N(C)C)n2)CC1 [compound 2351]
[4]
  class: 3 (Class 3 The value of percent of control at 10^−7 M was more than 60% or the value of IC50 was more than 200 nM.)

## CN(C)c1ccnc(N[C@H]2CC[C@@H](NC(=O)c3ccc(F)c(Cl)c3)CC2)n1 [compound 291, 3-chloro-N-(cis-4-{[4-(dimethylamino)pyrimidin-2-yl]amino}cyclohexyl)-4-fluorobenzamide]
[3]
  class: 1 (Class 1: The value of percent of control at 10^−7 M was less than 40% or the value of IC50 was less than 50 nM.)

## Cc1cc(N(C)C)nc(N[C@H]2CC[C@@H](C(=O)NCc3cc(C(F)(F)F)cc(C(F)(F)F)c3)CC2)n1 [Example 2578, cis-N-[3,5-bis(trifluoromethyl)benzyl]-4-{[4-(dimethylamino)-6-methylpyrimidin-2-yl]amino}cyclohexanecarboxamide]
  class: 1

## Cc1cc(N(C)C)nc(N[C@H]2CC[C@@H](NC(=O)c3cccc(Cl)c3)CC2)n1 [compound 2987]
[1]
  class: 1 (Class 1: The value of percent of control at 10^−7 M was less than 40% or the value of IC50 was less than 50 nM.)

## CN(C)c1ccnc(N[C@H]2CC[C@@H](CNC(=O)Nc3ccccc3C(C)(C)C)CC2)n1 [compound 2430, N-(2-tert-butylphenyl)-N′-[(cis-4-{[4-(dimethylamino)pyrimidin-2-yl]amino}cyclohexyl)methyl]urea]
[4]
  class: 1 (Class 1: The value of percent of control at 10^−7 M was less than 40% or the value of IC50 was less than 50 nM.)

## Cc1cc(N(C)C)nc(NC[C@H]2CC[C@@H](NC(=O)c3ccc(C)c(F)c3)CC2)n1 [compound 2737]
[1]
  class: 3 (Class 3 The value of percent of control at 10^−7 M was more than 60% or the value of IC50 was more than 200 nM.)

## Cc1cc(Br)cc(C)c1NC(=S)N[C@H]1CC[C@@H](Nc2nccc(N(C)C)n2)CC1 [compound 2328, N-(4-bromo-2,6-dimethylphenyl)-N′-(cis-4-{[4-(dimethylamino)pyrimidin-2-yl]amino}cyclohexyl)thiourea]
[4]
  class: 1 (Class 1: The value of percent of control at 10^−7 M was less than 40% or the value of IC50 was less than 50 nM.)

## COc1cccc(OCC(=O)N[C@H]2CC[C@@H](Nc3cc(C)c4ccccc4n3)CC2)c1 [Example 2554, 2-(3-methoxyphenoxy)-N-{cis-4-[(4-methylquinolin-2-yl)amino]cyclohexyl}acetamide]
  class: 1

## CCOc1ccc(NC(=S)N[C@H]2CC[C@@H](Nc3nc4c(c(N(C)C)n3)CCCC4)CC2)cc1 [compound 1939]
[5]
  class: 3 (Class 3 The value of percent of control at 10^−7 M was more than 60% or the value of IC50 was more than 200 nM.)

## CN(C)c1cc(N[C@H]2CC[C@@H](NCc3ccc(F)c(Cl)c3)CC2)nc2ccccc12 [compound 1121]
[2]
  class: 3 (Class 3 The value of percent of control at 10^−7 M was more than 60% or the value of IC50 was more than 200 nM.)

## CN(C)c1ccnc(N[C@H]2CC[C@@H](NC(=O)c3cc(Cl)sc3Cl)CC2)n1 [compound 301]
[3]
  class: 2 (Class 2: The value of percent of control at 10^−7 M was from 40% to 60% or the value of IC′50 was from 50 nM to 200 nM.)

## Cc1cccc(C(=O)N[C@H]2CC[C@@H](Nc3nc(C)c(C)c(N(C)C)n3)CC2)c1 [compound 2837, N-(cis-4-{[4-(dimethylamino)-5,6-dimethylpyrimidin-2-yl]amino}cyclohexyl)-3-methylbenzamide]
[1]
  class: 1 (Class 1: The value of percent of control at 10^−7 M was less than 40% or the value of IC50 was less than 50 nM.)

## COc1ccc(NC(=O)N[C@H]2CC[C@@H](Nc3nccc(N(C)C)n3)CC2)cc1OC [compound 2240]
[3]
  class: 3 (Class 3 The value of percent of control at 10^−7 M was more than 60% or the value of IC50 was more than 200 nM.)

## CN(C)c1ccnc(N[C@H]2CC[C@@H](CNC(=O)C(c3ccc(Cl)cc3)c3ccc(Cl)cc3)CC2)n1 [compound 937, 2,2-bis(4-chlorophenyl)-N-[(cis-4-{[4-(dimethylamino)pyrimidin-2-yl]amino}cyclohexyl)methyl]acetamide]
[3]
  class: 1 (Class 1: The value of percent of control at 10^−7 M was less than 40% or the value of IC50 was less than 50 nM.)

## COc1ccc(C)cc1NC(=O)NC[C@H]1CC[C@@H](Nc2nc3c(c(N(C)C)n2)CCCC3)CC1 [compound 2492]
[3]
  class: 3 (Class 3 The value of percent of control at 10^−7 M was more than 60% or the value of IC50 was more than 200 nM.)

## CN(C)c1cc(N[C@H]2CC[C@@H](CNC(=O)Nc3c(Cl)cc(Cl)cc3Cl)CC2)nc2ccccc12 [compound 2369, N-[(cis-4-{[4-(dimethylamino)quinolin-2-yl]amino}cyclohexyl)methyl]-N′-(2,4,6-trichlorophenyl)urea]
[4]
  class: 1 (Class 1: The value of percent of control at 10^−7 M was less than 40% or the value of IC50 was less than 50 nM.)

## CN(C)c1cc(N[C@H]2CC[C@@H](NC(=O)c3cc(C(C)(C)C)c(O)c(C(C)(C)C)c3)CC2)nc2ccccc12 [compound 787]
[3]
  class: 3 (Class 3 The value of percent of control at 10^−7 M was more than 60% or the value of IC50 was more than 200 nM.)

## Cc1ccc(C(=O)NC[C@H]2CC[C@@H](Nc3nc4c(c(N(C)C)n3)CCCC4)CC2)cc1F [compound 636]
[3]
  class: 3 (Class 3 The value of percent of control at 10^−7 M was more than 60% or the value of IC50 was more than 200 nM.)

## CN(C)c1ccnc(N[C@H]2CC[C@@H](NC(=O)c3ccc(F)c(F)c3)CC2)n1 [compound 251, N-(cis-4-{[4-(dimethylamino)pyrimidin-2-yl]amino}cyclohexyl)-3,4-difluorobenzamide]
[3]
  class: 1 (Class 1: The value of percent of control at 10^−7 M was less than 40% or the value of IC50 was less than 50 nM.)

## CCCSc1ncccc1C(=O)N[C@H]1CC[C@@H](Nc2nc3c(c(N(C)C)n2)CCCC3)CC1 [compound 520]
Class 1-3 by percent of control at 10^-7 M or IC50
  class: 2 (Class 2: The value of percent of control at 10^−7 M was from 40% to 60% or the value of IC′50 was from 50 nM to 200 nM.)

## CN(C)c1cc(N[C@H]2CC[C@@H](CNC(=O)c3ccc(I)o3)CC2)nc2ccccc12 [compound 795, N-[(cis-4-{[4-(dimethylamino)quinolin-2-yl]amino}cyclohexyl)methyl]-5-iodo-2-furamide]
[3]
  class: 3 (Class 3 The value of percent of control at 10^−7 M was more than 60% or the value of IC50 was more than 200 nM.)
